What was measured:
EpiDerm tissues = conditions: retinol 10 μg/ml, Sytenol A 5 μg/ml, 2 days, vs 0.1% DMSO control
skin = conditions: in vivo

Compound: C=C[C@@](C)(/C=C/c1ccc(O)cc1)CCC=C(C)C [Sytenol A, bakuchiol]
- Fold Change, JUP Catenin gamma (Junction plakoglobin) (Table 8) (EpiDerm tissues): +3.83 fold
- Fold Change, JUP Catenin gamma (Table 9) (EpiDerm tissues): +3.83 fold
- Fold Change, KIF1C Kinesin-like protein KIF1C (EpiDerm tissues): +2.03 fold
- Fold Change, KIF2A Kinesin-like protein KIF2A (EpiDerm tissues): No effect
- Fold Change, KIF4A Chromosome-associated kinesin KIF4A (EpiDerm tissues): +2.15 fold
- Fold Change, KIF13A Kinsein-like protein KIF13A (EpiDerm tissues): No effect
- Fold Change, KIF13B Kinsein-like protein KIF13B (EpiDerm tissues): +3.53 fold
- Fold Change, KIF17 Kinesin-like protein KIF17 (EpiDerm tissues): +2.44 fold
- Fold Change, KIF26A Kinesin family member 26A (EpiDerm tissues): No effect
- Fold Change, KIFC2 Kinesin-like protein KIFC2 (EpiDerm tissues): No effect
- Fold Change, KRT2 Keratin-2; Cytokeratin-2e (CK 2e) (EpiDerm tissues): −3.53 fold
- Fold Change, KRT5 Keratin-5, Cytokeratin-5 (CK-5) (EpiDerm tissues): +2.81 fold
- Fold Change, KRT7 Keratin-7; Cytokeratin-7 (CK-7) (EpiDerm tissues): +13.75 fold
- Fold Change, KRT13 Keratin-13; Cytokeratin-13 (CK-13) (EpiDerm tissues): +16.34 fold
- Fold Change, KRT15 Keratin-15; Cytokeratin-15 (CK-15) (EpiDerm tissues): +11.29 fold
- Fold Change, KRT19 Keratin-19; Cytokeratin-19 (CK-19) (EpiDerm tissues): +20.67 fold
- Fold Change, LAMA3 Laminin subunit alpha-3 precursor (Epiligrin 170 kDa subunit) (EpiDerm tissues): +11.03 fold
- Fold Change, LAMC2 Laminin subunit gamma-2 precursor (Laminin B2t chain) (EpiDerm tissues): +7.84 fold
- Fold Change, LRAT Lecithin retinol acyltransferase (EpiDerm tissues): +82.23 fold
- Fold Change, LRRC49 Tubulin polyglutamylase complex subunit 4 (PGs4) (EpiDerm tissues): −3.47 fold
- Fold Change, MC1R, TUBB3 Tubulin beta-3-chain (Tubulin beta-III) (EpiDerm tissues): +3.23 fold
- Fold Change, MMP9 Matrix metalloprotease-9-precursor (EpiDerm tissues): +12.61 fold
- Fold Change, MMP15 Matrix metalloprotease-15 precursor (EpiDerm tissues): +4.19 fold
- Fold Change, MMP21 Matrix metalloprotease-21 precursor (EpiDerm tissues): −7.89 fold
- Fold Change, MMP23A, MMP23B Matrix metalloprotease-23 (EpiDerm tissues): −8.83 fold
- Fold Change, MMP26 Matrix metalloprotease-26-precursor (MMP-26) (EpiDerm tissues): +2.91 fold
- Fold Change, MMP28 Matrix metalloprotease-28-precursor (EpiDerm tissues): +15.91 fold
- Fold Change, MYH14 Myosin-14 (EpiDerm tissues): +5.72 fold
- Fold Change, MYL2 Myosin regulatory light chain 2 (EpiDerm tissues): −2.50 fold
- Fold Change, MYO1F Myosin-lf (Myosin-le) (EpiDerm tissues): +3.44 fold
- Fold Change, MYO6 Myosin-VI (EpiDerm tissues): +2.38 fold
- Fold Change, Mast/stem cell growth factor receptor precursor (SCFR) (Proto-oncogene tyrosine-protein kinase kit (c-kit)) (EpiDerm tissues): −2.31 fold
- Fold Change, NDST4 N-heparan sulfate sulfotransferase 4 (EpiDerm tissues): +4.43 fold
- Fold Change, NEIL2 DNA glycosylase/AP lyase Neil2 (EpiDerm tissues): +4.17 fold
- Fold Change, NF-kappa-B-activating protein (EpiDerm tissues): −2.32 fold
- Fold Change, NGRN, TTLL13 Tubulin tyrosine ligase-like family, member 13 (EpiDerm tissues): +12.65 fold
- Fold Change, NT5C1B, RDH14 Retinol dehydrogenase 14 (Alcohol dehydrogenase PAN20) (EpiDerm tissues): −3.57 fold
- Fold Change, Nuclear factor Kappa B p105 unit (NF-kappa-B) (DNA-binding factor KBF 1) (EpiDerm tissues): −2.01 fold
- Fold Change, PARP2 Poly (ADP-ribose) polymerase 2 (EpiDerm tissues): +1.46 fold
- Fold Change, PARP9 Poly (ADP-ribose) polymerase 9 (EpiDerm tissues): +7.74 fold
- Fold Change, PARP12 Poly (ADP-ribose) polymerase 12 (EpiDerm tissues): +6.05 fold
- Fold Change, PARP15 Poly (ADP-ribose) polymerase 15 (EpiDerm tissues): No effect
- Fold Change, PCDH11X Procadherin-11 (EpiDerm tissues): +10.15 fold
- Fold Change, PCDH18 Procadherin-18-precursor (EpiDerm tissues): No effect
- Fold Change, PCDH19 Procadherin-19-precursor (EpiDerm tissues): No effect
- Fold Change, PCDHB1 Procadherin-beta-1-precursor (EpiDerm tissues): +2.00 fold
- Fold Change, PCDHB2 Procadherin-beta-2-precursor (EpiDerm tissues): +18.74 fold
- Fold Change, PCDHB3 Procadherin-beta-3-precursor (EpiDerm tissues): No effect
- Fold Change, PCDHB4 Procadherin-beta-4-precursor (EpiDerm tissues): −7.81 fold
- Fold Change, PFN4 Profilin-4 (Profilin IV) (EpiDerm tissues): No effect
- Fold Change, PI3 Elastase-specific inhibitor (EpiDerm tissues): +2.72 fold
- Fold Change, Protein Kinase B (RAC-alpha serine/threonine-protein kinase) (RAC-PK-alpha) (EpiDerm tissues): −3.47 fold
- Fold Change, RARRES1 Retinoic acid receptor responder protein 1 (EpiDerm tissues): +12.87 fold
- Fold Change, RBP1 Cellular Retinol-binding protein-I (EpiDerm tissues): +4.17 fold
- Fold Change, RBP2 Cellular Retinol-binding protein-II (EpiDerm tissues): +4.12 fold
- Fold Change, RBP7 Cellular retinoic acid-binding protein 4 (EpiDerm tissues): +3.09 fold
- Fold Change, RETSAT All-trans-retinol 13,14-reductase precursor (EpiDerm tissues): −2.84 fold
- Fold Change, SELE E-selection precursor (Endothelial leukocyte adhesion molecule 1) (ELAM-1) (EpiDerm tissues): No effect
- Fold Change, SERPINB1 Leukocyte elastase inhibitor (EpiDerm tissues): +6.09 fold
- Fold Change, SIR2-like protein1/NAD-dependent deacetylase sirtuin-1 (hSIRT1) (EpiDerm tissues): −1.54 fold
- Fold Change, SIR2-like protein2/NAD-dependent deacetylase sirtuin-2 (EpiDerm tissues): +1.52 fold
- Fold Change, SIR2-like protein7/NAD-dependent deacetylase sirtuin-7 (EpiDerm tissues): +2.47 fold
- Fold Change, SRRM1 Serine/arginine repetitive matrix protein 1 (SR-related nuclear matrix protein 160 kDa) (SRm160) (EpiDerm tissues): +3.13 fold
- Fold Change, TBCEL Tubulin-specific chaperone cofactor E-like protein (EL) (EpiDerm tissues): No effect
- Fold Change, TTBK1 Tau-tubulin kinase 1 (EpiDerm tissues): No effect
- Fold Change, TTLL1 Tubulin polyglutamylase complex subunit 3 (PGs3) (EpiDerm tissues): +2.07 fold
- Fold Change, TUBB2B Tubulin beta-2B chain (EpiDerm tissues): −3.31 fold
- Laminins gene regulation (in words) (EpiDerm tissues): up-regulate
- Primary skin irritation (edema or erythema) (skin): NON-PRIMARY IRRITANT
